Results on five cell lines are retold here after the supplement of paper PMC10307832.

What all share (test): relative viability (nuclei count vs DMSO), 5 days (fraction); higher = more cells survive
Compound in assay [1]: C1CCC(CC1)N(CCNCCC2=C3C(=C(C=C2)O)NC(=O)CO3)C(=O)CCNCCC4=CC(=C(C=C4)Cl)Cl [AZ505] + CC(=O)c1c(C)c2cnc(Nc3ccc(N4CCNCC4)cn3)nc2n(C2CCCC2)c1=O [Palbociclib] (partner 0.5 µM)
Summed up: (§1)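 Lung cancer cell lines in 1536-well plates got either a single drug or a fixed anchor-drug dose together with five library-drug doses (not always all listed) in √10 steps, by pin tool, on the day after seeding. Nuclei were counted after 5 days, and relative viability is the treated-to-vehicle ratio of nuclei counts. Values are medians of duplicate plates.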

Compound in assay [2]: Cn1c(=O)n(-c2ccc(C(C)(C)C#N)cc2)c2c3cc(-c4cnc5ccccc5c4)ccc3ncc21 [Dactolisib] + CC(=O)c1c(C)c2cnc(Nc3ccc(N4CCNCC4)cn3)nc2n(C2CCCC2)c1=O [Palbociclib] (partner 0.5 µM)
In short, it runs like this:
as §1

Compound in assay [3]: Cn1c(=O)n(-c2ccc(C(C)(C)C#N)cc2)c2c3cc(-c4cnc5ccccc5c4)ccc3ncc21 [Dactolisib] + CS(=O)(=O)N1CCN(Cc2cc3nc(-c4cccc5[nH]ncc45)nc(N4CCOCC4)c3s2)CC1 [Pictilisib] (partner 1 µM)
Summed up:
as §1

Compound in assay [4]: Cn1c(=O)n(-c2ccc(C(C)(C)C#N)cc2)c2c3cc(-c4cnc5ccccc5c4)ccc3ncc21 [Dactolisib] + O=C(c1cc(Cc2n[nH]c(=O)c3ccccc23)ccc1F)N1CCN(C(=O)C2CC2)CC1 [Olaparib] (partner 8 µM)
In short, it runs like this: as §1

Regarding PC-14, the relative viability in assay [1] (first compound 0.08 µM) was determined as 0.402; in assay [1] (first compound 0.253 µM) it was 0.439; in assay [1] (first compound 0.8 µM), 0.456; in assay [1] (first compound 2.53 µM) it was 0.471; in assay [1] (first compound 8 µM), 0.595; in assay [2] (first compound 0.002 µM), 0.654. The relative viability in assay [2] (first compound 0.006325 µM) is 0.487; in assay [2] (first compound 0.02 µM), 0.446; in assay [2] (first compound 0.06325 µM) it was 0.0827; in assay [2] (first compound 0.2 µM), 0.0725; in assay [3] (first compound 0.002 µM), 0.9; in assay [3] (first compound 0.006325 µM) it was 0.586. Also, the relative viability in assay [3] (first compound 0.02 µM) turned out to be 0.412; in assay [3] (first compound 0.06325 µM) it was 0.196; in assay [3] (first compound 0.2 µM), 0.0762; in assay [4] (first compound 0.002 µM) it was 0.337; in assay [4] (first compound 0.006325 µM) it was 0.505; in assay [4] (first compound 0.02 µM), 0.359. Besides, the relative viability in assay [4] (first compound 0.06325 µM) came to 0.141; in assay [4] (first compound 0.2 µM) it was 0.0895.

With RERF-LC-KJ, the relative viability in assay [1] (first compound 0.08 µM) came out at 0.982; in assay [1] (first compound 0.253 µM), 1.15; in assay [1] (first compound 0.8 µM), 1.05; in assay [1] (first compound 2.53 µM) it was 1; in assay [1] (first compound 8 µM) it was 0.984; in assay [2] (first compound 0.002 µM), 1.19. The relative viability in assay [2] (first compound 0.006325 µM) is 1.12; in assay [2] (first compound 0.02 µM), 0.863; in assay [2] (first compound 0.06325 µM), 0.438; in assay [2] (first compound 0.2 µM) it was 0.452; in assay [3] (first compound 0.002 µM), 0.562; in assay [3] (first compound 0.006325 µM), 0.519. The relative viability stood at 0.466 in assay [3] (first compound 0.02 µM); 0.41 in assay [3] (first compound 0.06325 µM); 0.293 in assay [3] (first compound 0.2 µM); 1.06 in assay [4] (first compound 0.002 µM); 0.893 in assay [4] (first compound 0.006325 µM); 0.829 in assay [4] (first compound 0.02 µM). Further, the relative viability in assay [4] (first compound 0.06325 µM) amounted to 0.385; in assay [4] (first compound 0.2 µM), 0.403.

As for SK-LU-1, the relative viability is 0.319 in assay [1] (first compound 0.08 µM); 0.343 in assay [1] (first compound 0.253 µM); 0.292 in assay [1] (first compound 0.8 µM); 0.322 in assay [1] (first compound 2.53 µM); 0.336 in assay [1] (first compound 8 µM); 0.335 in assay [2] (first compound 0.002 µM). Further, the relative viability in assay [2] (first compound 0.006325 µM) was found to be 0.393; in assay [2] (first compound 0.02 µM) it was 0.337; in assay [2] (first compound 0.06325 µM), 0.268; in assay [2] (first compound 0.2 µM), 0.281; in assay [3] (first compound 0.002 µM) it was 0.48; in assay [3] (first compound 0.006325 µM), 0.547. Besides, the relative viability in assay [3] (first compound 0.02 µM) amounted to 0.484; in assay [3] (first compound 0.06325 µM), 0.432; in assay [3] (first compound 0.2 µM), 0.211; in assay [4] (first compound 0.002 µM) it was 0.428; in assay [4] (first compound 0.006325 µM) it was 0.406; in assay [4] (first compound 0.02 µM), 0.539. The values for the relative viability in assay [4] (first compound 0.06325 µM) and in assay [4] (first compound 0.2 µM) were 0.402 and 0.216, respectively.

In the case of SK-MES-1, the relative viability in assay [1] (first compound 0.08 µM) was 0.31; in assay [1] (first compound 0.253 µM), 0.316; in assay [1] (first compound 0.8 µM) it was 0.26; in assay [1] (first compound 2.53 µM), 0.294; in assay [1] (first compound 8 µM), 0.32; in assay [2] (first compound 0.002 µM), 0.297. Further, the relative viability in assay [2] (first compound 0.006325 µM) is 0.298; in assay [2] (first compound 0.02 µM), 0.269; in assay [2] (first compound 0.06325 µM) it was 0.247; in assay [2] (first compound 0.2 µM) it was 0.214; in assay [3] (first compound 0.002 µM) it was 0.391; in assay [3] (first compound 0.006325 µM), 0.356. Besides, the relative viability in assay [3] (first compound 0.02 µM) stood at 0.297; in assay [3] (first compound 0.06325 µM) it was 0.337; in assay [3] (first compound 0.2 µM), 0.182; in assay [4] (first compound 0.002 µM), 0.739; in assay [4] (first compound 0.006325 µM) it was 0.685; in assay [4] (first compound 0.02 µM), 0.531. Also, the relative viability in assay [4] (first compound 0.06325 µM) was 0.286; in assay [4] (first compound 0.2 µM), 0.171.

Take SW 1573: the relative viability in assay [1] (first compound 0.08 µM) was found to be 0.342; in assay [1] (first compound 0.253 µM), 0.393; in assay [1] (first compound 0.8 µM) it was 0.389; in assay [1] (first compound 2.53 µM) it was 0.441; in assay [1] (first compound 8 µM), 0.4; in assay [2] (first compound 0.002 µM), 0.395. In addition, the relative viability in assay [2] (first compound 0.006325 µM) came out at 0.324; in assay [2] (first compound 0.02 µM), 0.225; in assay [2] (first compound 0.06325 µM), 0.154; in assay [2] (first compound 0.2 µM), 0.116; in assay [3] (first compound 0.002 µM), 0.609; in assay [3] (first compound 0.006325 µM), 0.446. The relative viability in assay [3] (first compound 0.02 µM) is 0.405; in assay [3] (first compound 0.06325 µM), 0.35; in assay [3] (first compound 0.2 µM) it was 0.15; in assay [4] (first compound 0.002 µM) it was 0.557; in assay [4] (first compound 0.006325 µM), 0.324; in assay [4] (first compound 0.02 µM) it was 0.418. Moreover, the relative viability in assay [4] (first compound 0.06325 µM) turned out to be 0.162; in assay [4] (first compound 0.2 µM), 0.145.
